Measured values published in ChEMBL document CHEMBL1201862, “PubChem BioAssay data set” (2004).
Blank lines part the entries; values can stand above or below the compound they belong to. Activity calls are given as the source filed them. For most assays here, no stated cut-off is given here; in the data, actives have a measured IC50 and inactives only a lower limit.

Key:
[1] = molecular target: T1, Alkaline phosphatase, tissue-nonspecific isozyme (Homo sapiens, UniProt P05186); assay: potency against alkaline phosphatase TNAP – biochemical, luminescent, dose response, SAR follow-up (AID 1056)
T1 sequence (P05186 whole entry): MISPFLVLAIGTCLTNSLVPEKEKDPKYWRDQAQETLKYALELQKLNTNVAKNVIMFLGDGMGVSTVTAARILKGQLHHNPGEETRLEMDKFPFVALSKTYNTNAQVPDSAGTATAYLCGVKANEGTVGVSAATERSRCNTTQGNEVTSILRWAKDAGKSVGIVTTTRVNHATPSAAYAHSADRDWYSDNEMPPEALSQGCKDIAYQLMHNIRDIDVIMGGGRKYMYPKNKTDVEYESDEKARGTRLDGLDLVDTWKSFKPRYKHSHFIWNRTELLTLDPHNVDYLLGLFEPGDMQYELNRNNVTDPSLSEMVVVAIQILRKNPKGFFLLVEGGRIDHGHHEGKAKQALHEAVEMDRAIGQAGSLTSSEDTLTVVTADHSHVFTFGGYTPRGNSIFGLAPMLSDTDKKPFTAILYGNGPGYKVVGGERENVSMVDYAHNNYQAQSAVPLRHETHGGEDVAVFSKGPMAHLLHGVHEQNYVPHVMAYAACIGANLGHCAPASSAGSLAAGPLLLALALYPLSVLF

[2] = molecular target: Alkaline phosphatase, placental type (Homo sapiens, UniProt P05187); assay: human placental alkaline phosphatase inhibition – biochemical, luminescence, confirmation (AID 1512); format: functional
[3] = molecular target: DNA dC->dU-editing enzyme APOBEC-3G (Homo sapiens, UniProt Q9HC16); format: functional;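 further: Dose-response counterscreen measuring inhibition of APOBEC3G DNA deaminase activity, run while confirming APOBEC3A inhibitors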
[4] = molecular target: DNA dC->dU-editing enzyme APOBEC-3A (Homo sapiens, UniProt P31941); assay: Dose Response confirmation of small molecule APOBEC3A DNA Deaminase Inhibitors via a fluorescence-based single-stranded DNA deaminase assay. [Related pubchem assays (depositor defined):AID493011, AID493024]; format: functional
[5] = molecular target: T2, Low molecular weight phosphotyrosine protein phosphatase (Homo sapiens, UniProt P24666); format: functional; conditions: read-out: IC50_Mean;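 further: Dose-response confirmation assay measuring inhibition of LMPTP enzyme activity by fluorescence intensity read-out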
T2 sequence (P24666 whole entry): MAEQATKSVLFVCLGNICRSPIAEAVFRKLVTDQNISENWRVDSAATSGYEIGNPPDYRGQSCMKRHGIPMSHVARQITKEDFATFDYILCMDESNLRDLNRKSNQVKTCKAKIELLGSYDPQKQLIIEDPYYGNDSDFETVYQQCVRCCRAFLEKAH

SUMO-activating enzyme [6] = molecular target: T3, SUMO-activating enzyme (Homo sapiens, UniProt Q9UBT2); assay: blockers of UBC9-mediated SUMO conjugation – biochemical, AlphaScreen, SUMOylation inhibitor project, confirmation (AID 2018); format: functional
[7] = molecular target: Dual specificity protein phosphatase 3 (Homo sapiens, UniProt P51452); assay: VHR phosphatase inhibition, dose response, selectivity assay for STEP inhibitor project, biochemical (AID 602374); format: functional; conditions: read-out: IC50_Mean
[8] = molecular target: T4, Tyrosine-protein phosphatase non-receptor type 11 (Homo sapiens, UniProt Q06124); assay: PTPN11 enzyme inhibitors – biochemical, selectivity assay for STEP inhibitor project, dose response (AID 602367); format: functional; conditions: read-out: IC50_Mean
T4 sequence (Q06124 whole entry): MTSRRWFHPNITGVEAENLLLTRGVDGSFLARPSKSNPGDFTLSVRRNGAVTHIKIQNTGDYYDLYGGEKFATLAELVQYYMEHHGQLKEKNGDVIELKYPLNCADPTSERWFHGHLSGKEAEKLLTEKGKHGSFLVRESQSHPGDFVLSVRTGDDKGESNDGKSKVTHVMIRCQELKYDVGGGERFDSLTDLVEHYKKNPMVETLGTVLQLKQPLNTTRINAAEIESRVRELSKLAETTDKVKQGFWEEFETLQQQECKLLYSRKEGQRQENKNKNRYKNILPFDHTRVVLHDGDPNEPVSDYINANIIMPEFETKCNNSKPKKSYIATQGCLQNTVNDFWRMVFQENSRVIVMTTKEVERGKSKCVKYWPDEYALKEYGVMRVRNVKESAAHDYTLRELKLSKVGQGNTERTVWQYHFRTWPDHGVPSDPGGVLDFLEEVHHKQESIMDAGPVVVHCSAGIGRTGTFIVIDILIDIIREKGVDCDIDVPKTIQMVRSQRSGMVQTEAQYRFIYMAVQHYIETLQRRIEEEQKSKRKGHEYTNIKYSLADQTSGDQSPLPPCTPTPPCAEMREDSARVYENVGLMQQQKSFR

SUMO-activating enzyme [9] = molecular target: T3, SUMO-activating enzyme; assay: blockers of SAE1/SAE2–UBC9 SUMO transfer – biochemical, HTRF, uHTS, primary screen (AID 2006); format: protein-complex assay
[10] = molecular target: T5, Carboxy-terminal domain RNA polymerase II polypeptide A small phosphatase 1 (Homo sapiens, UniProt Q9GZU7); assay: CTDSP1 inhibitors, concentration-response, biochemical, absorbance readout, ultra-high-throughput screen actives (AID 540297); format: functional
T5 sequence (Q9GZU7 whole entry): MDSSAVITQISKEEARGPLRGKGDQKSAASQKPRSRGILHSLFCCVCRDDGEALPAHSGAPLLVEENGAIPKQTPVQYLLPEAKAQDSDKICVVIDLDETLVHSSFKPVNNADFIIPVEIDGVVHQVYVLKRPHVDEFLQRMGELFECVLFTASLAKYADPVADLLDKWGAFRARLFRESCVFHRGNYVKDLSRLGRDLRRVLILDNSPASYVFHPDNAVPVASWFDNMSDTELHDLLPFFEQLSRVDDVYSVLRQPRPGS

[11] = molecular target: T6, Tyrosine-protein phosphatase non-receptor type 5 (Homo sapiens, UniProt P54829); assay: PTPN5 enzyme inhibition – biochemical, fluorescence intensity, uHTS hits, confirmation (AID 602372); format: functional; conditions: read-out: IC50_Mean
T6 sequence (P54829 whole entry): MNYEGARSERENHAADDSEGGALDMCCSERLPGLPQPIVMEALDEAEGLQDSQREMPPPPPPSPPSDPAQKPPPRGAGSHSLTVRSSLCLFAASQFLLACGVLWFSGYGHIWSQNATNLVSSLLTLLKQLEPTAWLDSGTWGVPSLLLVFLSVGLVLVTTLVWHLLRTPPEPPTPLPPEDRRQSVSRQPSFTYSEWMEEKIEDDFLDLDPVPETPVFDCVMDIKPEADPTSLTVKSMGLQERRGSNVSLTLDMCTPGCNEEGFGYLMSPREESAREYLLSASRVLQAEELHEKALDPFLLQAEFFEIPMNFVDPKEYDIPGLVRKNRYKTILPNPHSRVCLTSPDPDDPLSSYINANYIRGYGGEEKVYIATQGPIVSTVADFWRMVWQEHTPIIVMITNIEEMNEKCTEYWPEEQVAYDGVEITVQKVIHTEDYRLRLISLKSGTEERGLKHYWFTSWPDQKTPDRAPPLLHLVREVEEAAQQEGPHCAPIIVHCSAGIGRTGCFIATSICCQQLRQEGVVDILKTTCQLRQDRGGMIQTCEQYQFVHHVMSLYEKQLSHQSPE

[12] = molecular target: Glyceraldehyde-3-phosphate dehydrogenase (Homo sapiens, UniProt P04406)
Glyceraldehyde-3-phosphate dehydrogenase, sequence (P04406 whole entry): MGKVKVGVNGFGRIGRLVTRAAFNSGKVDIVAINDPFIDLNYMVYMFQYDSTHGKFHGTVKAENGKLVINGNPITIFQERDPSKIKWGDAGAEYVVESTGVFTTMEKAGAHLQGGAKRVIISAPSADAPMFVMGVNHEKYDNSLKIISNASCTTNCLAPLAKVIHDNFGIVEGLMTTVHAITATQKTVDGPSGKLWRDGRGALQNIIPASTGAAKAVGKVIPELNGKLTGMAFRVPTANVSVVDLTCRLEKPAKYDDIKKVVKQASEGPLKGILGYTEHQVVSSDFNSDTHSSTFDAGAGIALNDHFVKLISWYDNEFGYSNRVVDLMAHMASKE

T3 sequence (Q9UBE0 whole entry): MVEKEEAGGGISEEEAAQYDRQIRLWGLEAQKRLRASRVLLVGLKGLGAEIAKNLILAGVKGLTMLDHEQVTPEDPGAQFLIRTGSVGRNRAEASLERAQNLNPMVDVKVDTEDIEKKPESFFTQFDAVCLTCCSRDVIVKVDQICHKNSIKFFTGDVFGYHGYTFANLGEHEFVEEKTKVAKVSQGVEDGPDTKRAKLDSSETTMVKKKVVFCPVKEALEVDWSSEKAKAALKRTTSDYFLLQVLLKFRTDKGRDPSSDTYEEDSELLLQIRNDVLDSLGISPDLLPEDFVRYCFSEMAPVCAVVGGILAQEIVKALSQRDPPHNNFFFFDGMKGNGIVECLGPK
T3 sequence (Q9UBT2 whole entry): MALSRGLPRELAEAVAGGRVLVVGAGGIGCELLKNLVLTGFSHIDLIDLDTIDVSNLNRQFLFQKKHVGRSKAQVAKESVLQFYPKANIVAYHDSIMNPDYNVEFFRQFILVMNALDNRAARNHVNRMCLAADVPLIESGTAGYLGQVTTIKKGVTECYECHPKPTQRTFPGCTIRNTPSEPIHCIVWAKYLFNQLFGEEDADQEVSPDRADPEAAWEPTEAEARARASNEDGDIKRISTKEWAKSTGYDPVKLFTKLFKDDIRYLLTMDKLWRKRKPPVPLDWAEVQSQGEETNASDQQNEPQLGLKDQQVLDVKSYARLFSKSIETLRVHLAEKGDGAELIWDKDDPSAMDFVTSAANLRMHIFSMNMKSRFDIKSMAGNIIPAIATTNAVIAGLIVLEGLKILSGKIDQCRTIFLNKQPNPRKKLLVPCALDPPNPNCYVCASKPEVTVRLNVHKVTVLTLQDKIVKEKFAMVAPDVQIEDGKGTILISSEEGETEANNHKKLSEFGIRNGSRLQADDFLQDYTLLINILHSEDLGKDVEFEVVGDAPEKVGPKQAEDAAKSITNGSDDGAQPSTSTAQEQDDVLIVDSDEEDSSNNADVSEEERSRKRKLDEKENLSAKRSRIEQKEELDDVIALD
Alkaline phosphatase, placental type, sequence (P05187 whole entry): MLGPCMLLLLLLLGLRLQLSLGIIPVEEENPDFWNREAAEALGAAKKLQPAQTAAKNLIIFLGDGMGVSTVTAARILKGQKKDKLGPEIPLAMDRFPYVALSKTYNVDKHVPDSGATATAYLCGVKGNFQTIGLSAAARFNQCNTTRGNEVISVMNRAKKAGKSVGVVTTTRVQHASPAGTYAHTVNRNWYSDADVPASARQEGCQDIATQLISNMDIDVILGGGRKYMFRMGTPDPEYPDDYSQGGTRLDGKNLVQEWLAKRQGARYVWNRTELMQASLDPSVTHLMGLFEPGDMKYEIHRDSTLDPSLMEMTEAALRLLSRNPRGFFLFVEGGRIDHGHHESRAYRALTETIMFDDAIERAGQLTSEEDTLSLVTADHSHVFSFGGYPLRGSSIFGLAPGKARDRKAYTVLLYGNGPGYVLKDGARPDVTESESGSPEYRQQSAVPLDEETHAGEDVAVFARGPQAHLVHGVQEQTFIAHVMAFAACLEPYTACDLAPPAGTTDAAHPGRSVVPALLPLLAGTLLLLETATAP
Dual specificity protein phosphatase 3, sequence (P51452 whole entry): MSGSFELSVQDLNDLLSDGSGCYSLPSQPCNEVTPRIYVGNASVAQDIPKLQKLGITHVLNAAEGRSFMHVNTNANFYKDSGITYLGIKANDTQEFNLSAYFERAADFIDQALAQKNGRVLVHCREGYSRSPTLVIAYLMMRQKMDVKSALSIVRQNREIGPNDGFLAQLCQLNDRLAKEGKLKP
DNA dC->dU-editing enzyme APOBEC-3G, sequence (Q9HC16 whole entry): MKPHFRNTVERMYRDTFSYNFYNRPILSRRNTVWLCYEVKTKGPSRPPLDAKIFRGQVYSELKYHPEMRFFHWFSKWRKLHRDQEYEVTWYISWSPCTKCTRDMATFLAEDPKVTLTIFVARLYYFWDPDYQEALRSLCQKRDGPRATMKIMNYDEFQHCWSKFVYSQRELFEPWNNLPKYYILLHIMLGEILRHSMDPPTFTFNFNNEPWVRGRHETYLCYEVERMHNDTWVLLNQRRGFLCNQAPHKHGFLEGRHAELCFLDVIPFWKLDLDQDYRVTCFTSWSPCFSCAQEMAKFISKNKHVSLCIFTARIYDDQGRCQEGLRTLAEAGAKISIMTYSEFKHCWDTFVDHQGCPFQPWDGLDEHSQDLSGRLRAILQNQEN
DNA dC->dU-editing enzyme APOBEC-3A, sequence (P31941 whole entry): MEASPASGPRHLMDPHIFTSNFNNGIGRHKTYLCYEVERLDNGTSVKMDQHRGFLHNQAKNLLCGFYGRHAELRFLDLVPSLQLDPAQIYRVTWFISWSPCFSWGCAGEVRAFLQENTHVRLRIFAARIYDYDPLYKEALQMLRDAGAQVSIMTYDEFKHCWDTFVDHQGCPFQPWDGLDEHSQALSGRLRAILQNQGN

- IC50 [1]: > 100 µM (inactive)
- IC50 [2]: > 100 µM (inactive)
SMILES: CC(C)(C)C1(C)Oc2cccc(O)c2O1 (stereo not drawn)

SMILES: CSc1ccc(S(=O)(=O)N2CCC(C(=O)NCc3ccccn3)CC2)cc1
- IC50 [3]: 13.9 µM (active)
- IC50 [4]: 6.18 µM (active)

- IC50 [5]: 32.9 µM (inactive)
- IC50 (SUMO-activating enzyme [6]): 4.87 µM (active)
- IC50 [7]: 2.29 µM (active)
- IC50 [8]: 2.2 µM (active)
- IC50 (SUMO-activating enzyme [9]): 23.9 µM (active)
- IC50 [10]: 5.84 µM (active)
- IC50 [11]: 14.1 µM (active)
SMILES: N=C1S/C(=C\c2ccc(O)cc2)C(=O)N1c1ccc(F)cc1

- IC50 [12]: > 100 µM (not active)
- IC50 [2]: > 100 µM (inactive)
SMILES: CN1CCN(C(=O)c2cc(-c3ccc(Cl)cc3Cl)n[nH]2)CC1
